Data as given in patent publication US20080090805A1, “CB-1 MODULATING COMPOUNDS AND THEIR USE” (ACADIA PHARMACEUTICALS INC., priority 2005, published 2008).

Test system: NSA mice
Experiment: Hypothermia study (block of CP 55,940-induced hypothermia)
Assay type: in vivo
Parameters: Hypothermia 3 mg/kg / Hypothermia 0.3 mg/kg: unit not given here
Conditions: for Hypothermia ID50: block of CP 55,940-induced hypothermia
Procedure: . […] Core body temperatures were then obtained at various time points following CP 55,940 administration. Core body temperature (to the nearest 0.1° C.) was obtained by rectal probe.

Compound	Hypothermia 0.3 mg/kg	Hypothermia 3 mg/kg	Hypothermia ID50
O=C(NCc1ccc(F)cc1)c1ccc2c(c1)N=C(C1CCCCC1)c1ccccc1S2 [drawing 1640]	24	80	1.5 mg/kg
O=C(NCCc1ccncc1)c1ccc2c(c1)N=C(c1ccc(Cl)s1)c1ccccc1S2 [drawing 1609]		67	
O=C(NC1CCC(F)(F)CC1)c1ccc2c(c1)N=C(c1cccc(Cl)c1)c1ccccc1S2 [drawing 1604]	5		
CCCCNC(=O)c1ccc2c(c1)N=C(c1ccc(Cl)c(F)c1)c1ccccc1S2 [drawing 1626]		79	
O=C(NCc1cccs1)c1ccc2c(c1)N=C(c1ccc(Cl)cc1)c1ccccc1S2 [drawing 1628]		92	0.9 mg/kg
CC(C)CCNC(=O)c1ccc2c(c1)N=C(c1ccccn1)c1ccccc1S2 [drawing 1649]		21	
CC(C)CNC(=O)c1ccc2c(c1)N=C(c1ccc(Cl)cc1)c1ccccc1S2 [drawing 1634]	25	79	
Cc1csc(CNC(=O)c2ccc3c(c2)N=C(c2cccc(C)n2)c2ccccc2S3)c1 [drawing 1616]	42	54	1.8 mg/kg
CCCCNC(=O)c1ccc2c(c1)N=C(c1ccc(Br)cn1)c1ccccc1S2 [drawing 1555]		80	
O=C(NCCCC(F)(F)F)c1ccc2c(c1)N=C(c1ccc(Cl)cc1F)c1ccccc1S2 [drawing 1552]	24	55	1.3 mg/kg
O=C(NCCc1cccnc1)c1ccc2c(c1)N=C(c1ccc(Cl)c(Cl)c1)c1ccccc1S2 [drawing 1569]		41	
CC(C)CNC(=O)c1ccc2c(c1)N=C(c1ccc(Cl)c(Cl)c1)c1ccccc1S2 [drawing 1570]		40	
CC(C)CCNC(=O)c1ccc2c(c1)N=C(c1cccc(F)c1)c1ccccc1S2 [drawing 1602]	0	67	
CC(C)CCNC(=O)c1ccc2c(c1)N=C(c1cccc(Cl)c1)c1ccccc1S2 [drawing 1564]	35	64	
CCCCNC(=O)C1=C/C=C/Sc2cc(F)ccc2/C(c2ccc(Cl)cn2)=N\C=C\1		4	
O=C(NCc1ccco1)c1ccc2c(c1)N=C(c1ccc(Cl)cc1)c1ccccc1S2 [drawing 1650]	28	79	0.9 mg/kg
CCCCNC(=O)c1ccc2c(c1)N=C(c1ccc(Cl)cn1)c1ccccc1S2 [drawing 1595]		53	
O=C(NN1CCCCCC1)c1ccc2c(c1)N=C(c1cccc(Cl)c1)c1ccccc1S2 [drawing 1586]	−27	86	1.14 mg/kg
Cc1ccsc1C1=Nc2cc(C(=O)NN3CCCCC3)ccc2Sc2ccccc21 [drawing 1615]		31	
O=C(NCc1ccccn1)c1ccc2c(c1)N=C(c1ccc(Cl)cc1)c1ccccc1S2 [drawing 1637]		42	
O=C(NC1CCCCC1)c1ccc2c(c1)N=C(c1ccc(F)cc1)c1ccccc1S2 [drawing 1580]	28	82	
Cc1ccsc1C1=Nc2cc(C(=O)NCCCC(F)(F)F)ccc2Sc2ccccc21 [drawing 1598]		24	
O=C(NN1CCCCC1)c1ccc2c(c1)N=C(c1ccc(Cl)s1)c1ccccc1S2 [drawing 1561]		42	

Compound	Hypothermia 0.3 mg/kg	Hypothermia 3 mg/kg	Hypothermia ID50
O=C(NCc1cccc(Cl)c1)c1ccc2c(c1)N=C(c1ccc(Cl)cc1)c1ccccc1S2 [drawing 1614]		−16	
O=C(NCc1cccs1)c1ccc2c(c1)N=C(c1cccc(F)c1)c1ccccc1S2 [drawing 1559]		17	
O=C(NC1CCCCC1)c1ccc2c(c1)N=C(c1ccc(Cl)cc1)c1ccccc1S2 [drawing 1603]		60	
COc1cccc(C2=Nc3cc(C(=O)NC4CCC(F)(F)CC4)ccc3Sc3ccccc32)n1 [drawing 1572]		19	
O=C(NCc1ccc(F)cc1)c1ccc2c(c1)N=C(c1ccc(Cl)cc1)c1ccccc1S2 [drawing 1630]	18	83	1.8 mg/kg
O=C(NCCCC(F)(F)F)c1ccc2c(c1)N=C(c1ccsc1)c1ccccc1S2 [drawing 1600]	32		
O=C(NCc1cccnc1)c1ccc2c(c1)N=C(c1ccc(Cl)c(Cl)c1)c1ccccc1S2 [drawing 1565]	1	19	
O=C(NN1CCCCC1)c1ccc2c(c1)N=C(c1ccc(Cl)cc1)c1ccccc1S2 [drawing 1575]	−18	69	
O=C(NN1CCCCC1)c1ccc2c(c1)N=C(C1CCCCC1)c1ccccc1S2 [drawing 1592]		69	
CCCCNC(=O)c1ccc2c(c1)N=C(c1ccc(F)cn1)c1ccccc1S2 [drawing 1629]		54	
O=C(NCCc1ccncc1)c1ccc2c(c1)N=C(c1ccc(Cl)c(Cl)c1)c1ccccc1S2 [drawing 1591]		41	
CCCCNC(=O)c1ccc2c(c1)N=C(c1ccc(Cl)s1)c1cc(F)ccc1S2 [drawing 1601]		17	
COc1ccc(C2=Nc3cc(C(=O)NCC(C)C)ccc3Sc3ccccc32)cc1 [drawing 1599]		71	
CCCCNC(=O)c1ccc2c(c1)N=C(c1ccc(Cl)cc1)c1ccc(F)cc1S2 [drawing 1562]	11	53	
O=C(NCCCC(F)(F)F)c1ccc2c(c1)N=C(c1cccc(F)c1)c1ccccc1S2 [drawing 1606]	11		
O=C(NCCc1cccnc1)c1ccc2c(c1)N=C(c1cccc(Cl)c1)c1ccccc1S2 [drawing 1643]		41	
O=C(NCc1cccs1)c1ccc2c(c1)N=C(c1cccc(Cl)c1)c1ccccc1S2 [drawing 1622]		61	
O=C(NCCc1cccnc1)c1ccc2c(c1)N=C(c1ccc(Cl)s1)c1ccccc1S2 [drawing 1585]	−14	76	1.7 mg/kg
CCCCNC(=O)c1ccc2c(c1)N=C(c1cccc(F)c1)c1ccccc1S2 [drawing 1593]		36	
O=C(NCc1cccnc1)c1ccc2c(c1)N=C(c1cccc(F)c1)c1ccccc1S2 [drawing 1621]		17	
Cc1csc(CNC(=O)c2ccc3c(c2)N=C(c2sccc2C)c2ccccc2S3)c1 [drawing 1610]		−2	
O=C(NCc1cccnc1)c1ccc2c(c1)N=C(c1ccc(Cl)cc1)c1ccccc1S2 [drawing 1633]		27	
O=C(NN1CCCCCC1)c1ccc2c(c1)N=C(c1ccc(Cl)cc1F)c1ccccc1S2 [drawing 1563]	2	54	

Compound	Hypothermia 0.3 mg/kg	Hypothermia 3 mg/kg	Hypothermia ID50
CCCCNC(=O)c1ccc2c(c1)N=C(c1cccc(Cl)c1)c1cc(F)ccc1S2 [drawing 1579]		8	
CCCCNC(=O)c1ccc2c(c1)N=C(c1ccc(Cl)cc1)c1ccccc1[S+]2[O-] (stereo not shown) [drawing 1619]		31	
O=C(NCc1ccco1)c1ccc2c(c1)N=C(c1cccc(Cl)c1)c1ccccc1S2 [drawing 1581]	24	67	1 mg/kg
O=C(NCc1ccco1)c1ccc2c(c1)N=C(c1ccc(Cl)c(Cl)c1)c1ccccc1S2 [drawing 1567]		54	
CC(C)CNC(=O)c1ccc2c(c1)N=C(c1ccc(F)cc1)c1ccccc1S2 [drawing 1636]	14	53	
O=C(NCc1cccc(Cl)c1)c1ccc2c(c1)N=C(N1CCC(F)(F)CC1)c1ccccc1S2 [drawing 1652]	−31	19	
O=C(NCCC(F)(F)F)c1ccc2c(c1)N=C(c1ccc(Cl)s1)c1ccccc1S2 [drawing 1624]		37	
CCCCNC(=O)c1ccc2c(c1)N=C(c1ccc(Cl)s1)c1ccc(Cl)cc1S2 [drawing 1589]		1	
Cc1ccsc1C1=Nc2cc(C(=O)NN3CCCCCC3)ccc2Sc2ccccc21 [drawing 1597]		18	
O=C(NC1CCCCC1)c1ccc2c(c1)N=C(c1cccc(Cl)c1)c1ccccc1S2 [drawing 1574]		74	
C[C@@H]1CCC[C@H](C)N1NC(=O)c1ccc2c(c1)N=C(c1cccc(Cl)c1)c1ccccc1S2 [drawing 1605]		−2	
CCCCNC(=O)c1ccc2c(c1)N=C(c1ccc(F)c(Cl)c1)c1ccccc1S2		94	
O=C(NCc1cccnc1)c1ccc2c(c1)N=C(c1ccc(Br)cc1)c1ccccc1S2 [drawing 1613]		2	
O=C(NCc1ccccc1)c1ccc2c(c1)N=C(c1cccc(Cl)c1)c1ccccc1S2 [drawing 1638]		27	
O=C(NN1CCCCC1)c1ccc2c(c1)N=C(c1ccc(Cl)cn1)c1ccccc1S2 [drawing 1651]		57	
CCCCNC(=O)c1ccc2c(c1)N=C(c1ccc(Cl)cc1)c1ccc(Cl)cc1S2 [drawing 1617]		30	
O=C(NCc1cccc(Cl)c1)c1ccc2c(c1)N=C(c1ccc(F)cc1)c1ccccc1S2 [drawing 1618]	16	50	
Cc1ccsc1C1=Nc2cc(C(=O)NCc3cccs3)ccc2Sc2ccccc21 [drawing 1642]		25	
O=C(NCc1ccco1)c1ccc2c(c1)N=C(c1ccc(F)cc1)c1ccccc1S2 [drawing 1553]	−11	90	1.2 mg/kg
O=C(NCCCC(F)(F)F)c1ccc2c(c1)N=C(c1ccc(Cl)s1)c1ccccc1S2 [drawing 1554]	11	73	1.7 mg/kg
CC(C)CNC(=O)c1ccc2c(c1)N=C(c1ccc(Cl)s1)c1ccccc1S2 [drawing 1578]	23	73	
